Assay results as given in patent US9879029B2, “ERK inhibitors” (Eli Lilly and Company, priority 2014, dated 2018).

How the values were obtained:
[1] = test system: ERK substrate (RSK) phosphorylation in HCT116 colorectal cancer cell line; experiment: ERK1/2 cell mechanistic assay (pRSK1 Alphascreen assay); assay type: cell-based; settings: Homo sapiens, HCT-116, 2 h; HCT116 cells, two hours, Rel IC50; read-out: pRSK1 inhibition IC50
Experimental: The purpose of this assay is to measure the ability of compounds to inhibit ERK signaling in cancer cells in vitro. Carry out the pRSK1 Alphascreen assay using the HCT116 colorectal cancer cell line (ATCC, # CCL-247). Routinely culture HCT116 cells in Dulbecco's Modified Eagle's Medium (DMEM) (Hyclone, #SH30022) growth medium containing 5% Fetal Bovine Serum (FBS) (Gibco, #16000-044) in T-150 flasks and incubate in a 5% CO2 incubator at 37° C. Harvest cells when they become confluent and freeze in freezing medium at 1×10e^7 cells/mL as “assay ready frozen cells” and store in liquid nitrogen. To run the assay, plate 40,000 HCT116 cells/well in a 96-well tissue culture plate and incubate at 37° C. in a 5% CO2 incubator overnight. Test compounds at 10 concentrations starting at a 20 μM top concentration and utilize a 1:3 dilution scheme (20 μM to 0.001 μM) with a final DMSO concentration of 0.5% (v/v). Add compounds in 20 μL serum free growth medium and incubate at 37° C. for two hours. Remove growth medium and add 50 μL of 1× lysis buffer [Cell Signaling Technology, #9803] containing 1×holt protease and phosphatase inhibitor cocktail [Thermo, #78441] to each well and incubate at room temperature for 10 minutes on a shaker. […] Measure the fluorescence intensity in each well by reading the plates in ENVISION® (PerkinElmer) plate reader. […]

[2] = test system: RSK1 phosphorylation in HCT116 tumor xenograft; experiment: In vivo target inhibition (IVTI) assay (pRSK1 ELISA), HCT116 xenograft; design: species or system female athymic nude mice; settings: oral
Experimental: The purpose of this assay is to measure the ability of a test compound to inhibit ERK1/2 substrate phosphorylation in an animal model. Implant female athymic nude mice (22-25 g) from Harlan Laboratories with 5×10e^6 HCT116 colorectal cancer cells (ATCC, # CCL-247) subcutaneously in the right flank region in 200 μL of 1:1 Hank's Balanced Salt Solution (HBSS)+Matrigel solution. Measure tumor growth and body weight twice per week beginning the seventh day after the implantation. When tumor sizes reach 300-500 mm^3, randomize animals and group into groups of five animals. […]
Pulverize tumors in liquid nitrogen and lyse in 1× lysis buffer (MSD, #R60TX-3) containing 1× halt protease & phosphatase inhibitor cocktail (Thermo Scientific, #0861281), 1 mM phenylmethanesulfonyl fluoride (PMSF) (Sigma, #93482-50ML-F) and 1 μM sodium metavanadate (Sigma, #590088) using Matrix D beads (MP Biomedical, #6913-500) in a FastPrep-24™ Cell Disrupter machine (MP Biomedical) in a cold room (4° C.). […] Cool plate to room temperature and measure the absorbance at or near 562 nm on a plate reader (Envision plate reader from Perkin Elmer). Subtract the average 562 nm absorbance measurement of the blank standard replicates from the 562 nm measurements of all other individual standard and unknown (cell or tumor lysate) sample replicates. […]

## COCCN1C(=O)c2cc(-c3ccnc(Nc4ccnn4C)c3)sc2C1(C)C [Example 1, 5-(2-Methoxyethyl)-6,6-dimethyl-2-{2-[(1-methyl-1H-pyrazol-5-yl)amino]pyridin-4-yl}-5,6-dihydro-4H-thieno[2,3-c]pyrrol-4-one]
[1]
  IC50: 261 nM
[2]
  TED50 (pRSK1 inhibition in tumor): 12 mg/kg
